The results in this text go back to PubChem BioAssay AID1259407 (Chemical Carcinogenesis Research Information System (CCRIS), 2018).

The data set relates to CCRIS mutagenicity, Ames/micronucleus/aberration tests. Kind of data set: CCRIS mutagenicity studies.
Setting [1] is: Test System: AMES SALMONELLA TYPHIMURIUM, Strain/Indicator: TA98, Metabolic Activation: NONE, Method: STANDARD PLATE.
The mark [2] stands for this setting: Test System: AMES SALMONELLA TYPHIMURIUM, Strain/Indicator: TA98, Metabolic Activation: RAT, LIVER, S-9, AROCLOR 1254, Method: STANDARD PLATE.
[3] abbreviates: Test System: AMES SALMONELLA TYPHIMURIUM, Strain/Indicator: TA100, Metabolic Activation: NONE, Method: STANDARD PLATE.
Where [4] appears, read: Test System: AMES SALMONELLA TYPHIMURIUM, Strain/Indicator: TA100, Metabolic Activation: RAT, LIVER, S-9, AROCLOR 1254, Method: STANDARD PLATE.

The source made the active and inactive calls. How the calls were made is not given here.

On to `O=C(O)c1ccccc1O`, for which the mutagenic call (Test System: AMES SALMONELLA TYPHIMURIUM, Strain/Indicator: TA98, Metabolic Activation: GUINEA PIG, LIVER, S-9, PCB, Method: PREINCUBATION) was “inactive; negative”; the mutagenic call (Test System: AMES SALMONELLA TYPHIMURIUM, Strain/Indicator: TA98, Metabolic Activation: HAMSTER, LIVER, S-9, PCB, Method: PREINCUBATION) was “inactive; negative”; the mutagenic call (Test System: AMES SALMONELLA TYPHIMURIUM, Strain/Indicator: TA98, Metabolic Activation: MOUSE, LIVER, S-9, PCB, Method: PREINCUBATION) was “inactive; negative”; the mutagenic call (Test System: AMES SALMONELLA TYPHIMURIUM, Strain/Indicator: TA98, Metabolic Activation: NONE, Method: PREINCUBATION) was “inactive; negative”; the mutagenic call (Test System: AMES SALMONELLA TYPHIMURIUM, Strain/Indicator: TA98, Metabolic Activation: RAT LIVER S-9, PHENOBARBITAL AND BETA-NAPHTHOFLAVONE, Method: PREINCUBATION) is “inactive; negative”; the mutagenic call (Test System: AMES SALMONELLA TYPHIMURIUM, Strain/Indicator: TA98, Metabolic Activation: RAT, LIVER, S-9, PCB, Method: PREINCUBATION) was “inactive; negative”. The mutagenic call was “inactive; negative” (Test System: AMES SALMONELLA TYPHIMURIUM, Strain/Indicator: TA100, Metabolic Activation: GUINEA PIG, LIVER, S-9, PCB, Method: PREINCUBATION); “inactive; negative” (Test System: AMES SALMONELLA TYPHIMURIUM, Strain/Indicator: TA100, Metabolic Activation: HAMSTER, LIVER, S-9, PCB, Method: PREINCUBATION); “inactive; negative” (Test System: AMES SALMONELLA TYPHIMURIUM, Strain/Indicator: TA100, Metabolic Activation: MOUSE, LIVER, S-9, PCB, Method: PREINCUBATION); “inactive; negative” (Test System: AMES SALMONELLA TYPHIMURIUM, Strain/Indicator: TA100, Metabolic Activation: NONE, Method: PREINCUBATION); “inactive; negative” (Test System: AMES SALMONELLA TYPHIMURIUM, Strain/Indicator: TA100, Metabolic Activation: RAT LIVER S-9, PHENOBARBITAL AND BETA-NAPHTHOFLAVONE, Method: PREINCUBATION); “inactive; negative” (Test System: AMES SALMONELLA TYPHIMURIUM, Strain/Indicator: TA1535, Metabolic Activation: NONE, Method: PREINCUBATION). Besides, the mutagenic call by setting is: (Test System: AMES SALMONELLA TYPHIMURIUM, Strain/Indicator: TA1535, Metabolic Activation: RAT LIVER S-9, PHENOBARBITAL AND BETA-NAPHTHOFLAVONE, Method: PREINCUBATION) “inactive; negative”; (Test System: AMES SALMONELLA TYPHIMURIUM, Strain/Indicator: TA1537, Metabolic Activation: NONE, Method: PREINCUBATION) “inactive; negative”; (Test System: AMES SALMONELLA TYPHIMURIUM, Strain/Indicator: TA1537, Metabolic Activation: RAT LIVER S-9, PHENOBARBITAL AND BETA-NAPHTHOFLAVONE, Method: PREINCUBATION) “inactive; negative”; (Test System: E.COLI, Strain/Indicator: WP2UVRA/PKM101, Metabolic Activation: NONE, Method: PREINCUBATION) “inactive; negative”; (Test System: E.COLI, Strain/Indicator: WP2UVRA/PKM101, Metabolic Activation: RAT LIVER S-9, PHENOBARBITAL AND BETA-NAPHTHOFLAVONE, Method: PREINCUBATION) “inactive; negative”.
Take `O=[N+]([O-])c1cc2c3c(c1)CCc1cc([N+](=O)[O-])cc(c1-3)CC2`: the mutagenic call (Test System: AMES SALMONELLA TYPHIMURIUM, Strain/Indicator: TA98(1,8-DNP6), Metabolic Activation: NONE, Method: STANDARD PLATE) is “active; positive”; the mutagenic call (Test System: AMES SALMONELLA TYPHIMURIUM, Strain/Indicator: TA98(NR), Metabolic Activation: NONE, Method: STANDARD PLATE) is “active; positive”; the mutagenic call under setting [1] was “active; positive”.
As for `COc1cc2c(cc1O)CCN[C@]21CS[C@@H]2c3c(OC(C)=O)c(C)c4c(c3[C@H](COC1=O)N1[C@@H]2[C@H]2c3c(cc(C)c(OC)c3O)C[C@@H]([C@@H]1O)N2C)OCO4`, the mutagenic call reads like this: (Test System: AMES SALMONELLA TYPHIMURIUM, Strain/Indicator: TA98, Metabolic Activation: HAMSTER, LIVER, S-9, AROCLOR 1254, Method: STANDARD PLATE) “active; positive”; under setting [1], “inactive; negative”; under setting [2], “active; positive”; (Test System: AMES SALMONELLA TYPHIMURIUM, Strain/Indicator: TA100, Metabolic Activation: HAMSTER, LIVER, S-9, AROCLOR 1254, Method: STANDARD PLATE) “inactive; negative”; under setting [3], “inactive; negative”; under setting [4], “inactive; negative”. Further, the mutagenic call is “active; positive” (Test System: Mouse lymphoma, Strain/Indicator: L5178Y (tk+/tk-), Metabolic Activation: None, Method: Suspension/plate) and “active; positive” (Test System: Mouse lymphoma, Strain/Indicator: L5178Y (tk+/tk-), Metabolic Activation: Rat, Liver, S-9, Aroclor 1254, Method: Suspension/plate).
As for `c1ccc2c(c1)c1cccc3c4ccccc4c4cccc2c4c13`, the mutagenic call (Test System: HUMAN H1A1V2 CELLS, Strain/Indicator: TK LOCUS, Metabolic Activation: NONE, Method: SUSPENSION/PLATE) was “active; positive”.
With `CCCCCCCC(=O)N=c1sn(C(=O)CCCCCCC)c2ccc([N+](=O)[O-])cc12`, the mutagenic call (Test System: AMES SALMONELLA TYPHIMURIUM, Strain/Indicator: TA100, Metabolic Activation: S-9, Method: STANDARD PLATE) was “active; positive”.
As to `NC(=O)N/N=C/C(=O)O`, the mutagenic call reads like this: under setting [1], “inactive; negative”; under setting [2], “inactive; negative”; under setting [3], “inactive; negative”; under setting [4], “inactive; negative”; (Test System: AMES SALMONELLA TYPHIMURIUM, Strain/Indicator: TA1535, Metabolic Activation: NONE, Method: STANDARD PLATE) “inactive; negative”; (Test System: AMES SALMONELLA TYPHIMURIUM, Strain/Indicator: TA1535, Metabolic Activation: RAT, LIVER, S-9, AROCLOR 1254, Method: STANDARD PLATE) “inactive; negative”. Further, the mutagenic call was “inactive; negative” (Test System: AMES SALMONELLA TYPHIMURIUM, Strain/Indicator: TA1537, Metabolic Activation: NONE, Method: STANDARD PLATE); “inactive; negative” (Test System: AMES SALMONELLA TYPHIMURIUM, Strain/Indicator: TA1537, Metabolic Activation: RAT, LIVER, S-9, AROCLOR 1254, Method: STANDARD PLATE); “inactive; negative” (Test System: AMES SALMONELLA TYPHIMURIUM, Strain/Indicator: TA1538, Metabolic Activation: NONE, Method: STANDARD PLATE); “inactive; negative” (Test System: AMES SALMONELLA TYPHIMURIUM, Strain/Indicator: TA1538, Metabolic Activation: RAT, LIVER, S-9, AROCLOR 1254, Method: STANDARD PLATE).
On to `Nc1cc([N+](=O)[O-])cc([N+](=O)[O-])c1CO`, for which the mutagenic call runs as follows: (End Point: In vitro chromosomal aberrations, Test System: V79 Chinese hamster fibroblasts, Metabolic Activation: None) “inactive; negative”; (Test System: Ames Salmonella typhimurium, Strain/Indicator: TA98, Metabolic Activation: None, Method: Standard plate) “active; positive”; (Test System: Ames Salmonella typhimurium, Strain/Indicator: TA98, Metabolic Activation: Rat, Liver, S-9, Method: Standard plate) “active; positive”; (Test System: Ames Salmonella typhimurium, Strain/Indicator: TA98NR, Metabolic Activation: None, Method: Standard plate) “active; positive”; (Test System: Ames Salmonella typhimurium, Strain/Indicator: TA100, Metabolic Activation: None, Method: Standard plate) “active; positive”; (Test System: Ames Salmonella typhimurium, Strain/Indicator: TA100, Metabolic Activation: Rat, Liver, S-9, Method: Standard plate) “active; positive”.
